{"source": "patent US20050164162A1", "about": "“Methods for multiple parameters screening and evolution of cells to produce small molecules with multiple functionalities” (EVOLVA LTD., C/O DR. IUR. MARTIN EISENRING, priority 2002, published 2005)", "origin": "cited, not measured here", "key": {"[1]": {"conditions": "co-administration of retinoids (LG100268)+TZDs; clinical studies"}, "colorectal cancer": {"system": "colorectal cancer", "conditions": "persons who regularly use Aspirin and other NSAIDs; population-based studies"}}}
{"smiles": "Cc1cc2c(cc1C1(c3ccc(C(=O)O)cn3)CC1)C(C)(C)CCC2(C)C", "note": "[LG100268]", "values": [{"measurement": "increases insulin sensitivity and glucose uptake", "setting": "[1]", "result": 60, "unit": "%"}]}
{"smiles": "CC(=O)Oc1ccccc1C(=O)O", "note": "[Aspirin]", "values": [{"measurement": "decrease in relative risk for colorectal cancer", "setting": "colorectal cancer", "result": "40-50%"}]}
